Read-outs that look alike come from different tables or passages of the source.
How the values were obtained:
[1] = molecular target: T1, sigma-1 receptor (guinea pig brain) (Cavia porcellus, UniProt Q60492); test: Antagonism of haloperidol binding to guinea pig sigma-1 receptors; conditions: sigma-1, guinea pig brain; for % Inhibition: test concentration not given
T1 construct: from tissue; host or cells: guinea pig brain

[2] = molecular target: human sigma receptor (Homo sapiens, UniProt Q99720); test: Human sigma receptor assay; type: binding
Sequence of human sigma receptor (Q99720 whole entry): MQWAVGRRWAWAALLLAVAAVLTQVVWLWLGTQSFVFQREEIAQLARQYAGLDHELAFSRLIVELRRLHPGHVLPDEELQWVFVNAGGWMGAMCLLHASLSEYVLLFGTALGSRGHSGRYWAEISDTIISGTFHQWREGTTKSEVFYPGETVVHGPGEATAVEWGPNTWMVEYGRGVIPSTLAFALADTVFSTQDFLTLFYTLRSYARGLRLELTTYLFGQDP
Protocol: (§1) The ability of test compounds to displace sigma ligands in vitro was determined by the methods of de Costa et al. (FEBS Lett. 251:53 (1989)) and De Haven-Hudkine et al. (Eur. J. Pharmacol. 227:372 (1992)) having guinea pig as a receptor source. Whereas, the methods of Gamapatju et al. (J. Pharm.&Exp. 289:251 (1999)) were utilized for human sigma receptors.

[3] = molecular target: T2, guinea pig sigma receptor (Cavia porcellus, UniProt Q60492); test: Guinea pig sigma receptor assay; type: binding
T2 construct: having guinea pig as a receptor source; from tissue; host or cells: guinea pig
T2 sequence (Q60492 whole entry): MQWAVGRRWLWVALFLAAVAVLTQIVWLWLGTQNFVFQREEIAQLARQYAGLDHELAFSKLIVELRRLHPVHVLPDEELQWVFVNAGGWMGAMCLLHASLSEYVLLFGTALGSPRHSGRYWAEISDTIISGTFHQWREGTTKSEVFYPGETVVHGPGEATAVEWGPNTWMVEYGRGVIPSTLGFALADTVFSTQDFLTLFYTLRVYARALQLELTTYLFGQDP
Protocol: as §1

[4] = test system: Male Wistar rats; test: MK-801-Induced Psychosis Model; type: in vivo, rat; conditions: rat, 0.25 mg/kg i.p.; MK-801 0.3 mg/kg i.p.
Excerpt: The non-competitive NMDA receptor antagonist MK-801 induces stereotypies and hyperactivity in rodents (1) by interacting with the NMDA receptor-associated ion channel. Phencyclidine, which also interferes with the NMDA receptor, produces psychotic effects in humans similar in many respects to schizophrenia. […] Therefore the MK-801-induced activity and stereotypies in rats may represent an appropriate animal model to test the potential efficacy of antipsychotic drugs.
Male Wistar rats (Iffa Crédo, St Germain/l'Arbresle, France), weight 250-300 g were housed 2 per cage on a 12 h/12 h light dark cycle (lights on at 7.00 a.m.) at a room temperature of 21±2° C. for a minimum of 5 days before testing. All animals had access to commercial food and tap water ad libitum.
On the day of the experiment, rats were treated with either reference drug vehicle, the reference drugs haloperidol or clozapine the test compound vehicle or test compounds. After administration, the rats were returned to their home cages for 15 minutes. […] The remaining rats treated with placebo received a second injection of vehicle. The standard injection volume was 2.0 ml/kg. After 10 minutes in the home cages, rats were transferred to the test box (Plexiglas, 29×12×12 cm), 5 minutes before the assessment for accomodation. The test box was cleaned with 70% ethanol before each assessment. Stereotypies, defined as wall-contacts with the snout, and locomotion, defined as turn-rounds of 180°, were assessed during 5 minute periods.

[5] = read-out: IC50 Against Human Sigma Receptor
[6] = read-out: IC50 Against Guinea Pig Sigma Receptor

T1 sequence (Q60492 whole entry): as above

Molecule	IC50 [1]	% Inhibition [1]	further results
1′-(iso-nicotinyl)-3,4-dihydrospiro[5H-1-benzazepine-2(1H)-4′-piperidin]-5-one [Compound 20]	> 1000 nM	<50%	–
NC1CCC2(CCN(Cc3ccc(F)cc3)CC2)Nc2ccccc21 (racemic) [Compound 36, 1′-(4-fluorobenzyl)-3,4-dihydrospiro[5H-1-benzazepine-2(1H)-4′-piperidin]-5-amine]	–	–	IC50 [2, 5]: < 100 nM
CC(=O)NC1CCC2(CCN(Cc3ccc(F)cc3)CC2)Nc2ccccc21 (racemic) [Compound 39]	–	–	IC50 [3, 6]: < 10 nM; IC50 [2, 5]: < 1000 nM
CC(=O)N1CCC2(CCC(=O)c3ccccc3N2)CC1 [Compound 10, 1′-Acetyl-3,4-dihydrospiro[5H-1-benzazepine-2(1H), 4′-piperidin]-5-one]	–	>50%	–
O=C1CCC2(CCN(C(=O)c3ccc(Cl)c(Cl)c3)CC2)Nc2ccccc21 [Compound 12, 1′-(3,4-Dichlorobenzoyl)-3,4-dihydrospiro[5H-1-benzazepine-2(1H)-4′-piperidin]-5-one]	> 1000 nM	<50%	–
O=C1CCC2(CCN(C(=O)N3CCOCC3)CC2)Nc2ccccc21 [Compound 13, 1′-(4-morpholinecarbonyl)-3,4-dihydrospiro[5H-1-benzazepine-2(1H)-4′-piperidin]-5-one]	> 1000 nM	<50%	–
CC(C)(C)c1ccc(C(=O)N2CCC3(CCC(=O)c4ccccc4N3)CC2)cc1 [Compound 14, 1′-(4-tert-Butylbenzoyl)-3,4-dihydrospiro[5H-1-benzazepine-2(1H)-4′-piperidin]-5-one]	> 1000 nM	<50%	–
CCN(CC)C(=O)N1CCC2(CCC(=O)c3ccccc3N2)CC1 [Compound 15, 1′-(Diethylcarbamyl)-3,4-dihydrospiro[5H-1-benzazepine-2(1H)-4′-piperidin]-5-one]	> 1000 nM	<50%	–
O=C1CCC2(CCN(C(=O)c3ccc4ccccc4c3)CC2)Nc2ccccc21 [Compound 16, 1′-(2-Naphthoyl)-3,4-dihydrospiro[5H-1-benzazepine-2(1H)-4′-piperidin]-5-one]	> 1000 nM	<50%	–
O=C1CCC2(CCN(S(=O)(=O)c3ccccc3)CC2)Nc2ccccc21 [Compound 17, 1′-(Benzenesulfonyl)-3,4-dihydrospiro[5H-1-benzazepine-2(1H)-4′-piperidin]-5-one]	> 1000 nM	<50%	–
O=C1CCC2(CCN(Cc3ccc(OC(F)(F)F)cc3)CC2)Nc2ccccc21 [Compound 18, 1′-(4-Trifluoromethoxybenzyl)-3,4-dihydrospiro[5H-1-benzazepine-2(1H), 4′-piperidin]-5-one]	–	>50%	–
COC(=O)c1ccc(CN2CCC3(CCC(=O)c4ccccc4N3)CC2)cc1 [Compound 22, 1′-(Methyl-(4-methylbenzoate))-3,4-dihydrospiro[5H-1-benzazepine-2(1H), 4′-piperidin]-5-one]	< 1000 nM	>50%	–
C=C(C)CCN1CCC2(CCC(=O)c3ccccc3N2)CC1 [Compound 23, 1′-(3-methyl-3-butene)-3,4-dihydrospiro[5H-1-benzazepine-2(1H)-4′-piperidin]-5-one]	–	>50%	–
N#Cc1ccc(CN2CCC3(CCC(=O)c4ccccc4N3)CC2)cc1 [Compound 24, 1′-(4-cyanobenzyl)-3,4-dihydrospiro[5H-1-benzazepine-2(1H), 4′-piperidin]-5-one]	–	>50%	–
O=C1CCC2(CCN(CCC3CCCCC3)CC2)Nc2ccccc21 [Compound 25]	–	>50%	–
C=CCN1CCC2(CCC(=O)c3ccccc3N2)CC1 [Compound 26, 1′-(allyl)-3,4-dihydrospiro[5H-1-benzazepine-2(1H)-4′-piperidin]-5-one]	–	>50%	–
CC(C)(C)CCN1CCC2(CCC(=O)c3ccccc3N2)CC1 [Compound 27, 1′-(3,3-dimethylbutane)-3,4-dihydrospiro[5H-1-benzazepine-2(1H)-4′-piperidin]-5-one]	–	>50%	–
O=C1CCC2(CCN(CC3CO3)CC2)Nc2ccccc21 (stereo not shown) [Compound 28, 1′-(epoxymethyl)-3,4-dihydrospiro[5H-1-benzazepine-2(1H)-4′-piperidin]-5-one]	–	>50%	–
CC(C)CCN1CCC2(CCC(=O)c3ccccc3N2)CC1 [Compound 29, 1′-(3-methylbutane)-3,4-dihydrospiro[5H-1-benzazepine-2(1H)-4′-piperidin]-5-one]	< 100 nM	>50%	–
O=C1CCC2(CCN(Cc3ncc[nH]3)CC2)Nc2ccccc21 [Compound 30, 1′-(2-methyl-imidazole)-3,4-dihydrospiro[5H-1-benzazepine-2(1H)-4′-piperidin]-5-one]	< 1000 nM	>50%	–
O=C1C=CC2(CCN(Cc3ccc(F)cc3)CC2)Nc2ccccc21 [Compound 34, 1′-(4-Fluorobenzyl)-spiro[5-1-benzazepine-2(1H)-4′-piperidin]-5-one]	< 100 nM	>50%	IC50 [3, 6]: < 100 nM
Fc1ccc(CN2CCC3(CCCc4ccccc4N3)CC2)cc1 [Compound 43]	–	–	IC50 [2, 5]: < 1000 nM
O=C1CCC2(CCN(CC(O)c3ccccc3)CC2)Nc2ccccc21 (stereo not shown) [Compound 45, 1′-(2-hydroxy-phenethyl)-3,4-dihydrospiro[5H-1-benzazepine-2(1H)-4′-piperidin]-5-one]	–	–	IC50 [3, 6]: < 10 nM; IC50 [2, 5]: < 100 nM
CC(c1ccc(F)cc1)N1CCC2(CCC(=O)c3ccccc3N2)CC1 (stereo not shown) [Compound 46, 1′-(1-Methyl-4-fluorobenzyl)-3,4-dihydrospiro[5H-1-benzazepine-2(1H)-4′-piperidin]-5-one]	–	–	IC50 [3, 6]: < 10 nM; IC50 [2, 5]: < 100 nM
C=C1c2ccccc2NC12CCN(Cc1ccc(F)cc1)CC2 [Compound 53, 1-Fluorobenzyl-spiro[(3-methylene)-indole-2,4′-piperidine]]	–	–	IC50 [3]: < 100 nM; IC50 [2]: > 1000 nM
O=C(CCCN1CCC(O)(c2ccc(Cl)cc2)CC1)c1ccc(F)cc1 [haloperidol, reference compound]	–	–	MK-801-induced locomotion [4]: significant reduction; MK-801-induced stereotypies [4]: significant reduction

From patent publication US6476019B1, “Spirocyclic ligands for sigma receptors, and libraries and methods of use thereof” (Sepracor Inc., priority 1999, dated 2002)
